Read-outs that look alike come from different tables or passages of the source.
Tests used:
[1] = target: Dopamine receptor D1, DRD1 (h) (Homo sapiens, UniProt P21728); settings: control SCH 23390
HepG2 cells = assay: High-throughput transcriptomics (HTTr, TempO-Seq), HepG2, 24 h; format: cell-based, human; settings: HepG2; for pod_httr_bifrost PoD: HTTr BIFROST PoD; for podl_path_minbmd PoD: HTTr minimum pathway BMD(L)
Experimental: (§1) HepG2, HepaRG, and MCF7 cells were treated with each compound for 24 h across a dose range of 7 concentrations and lysed using TempO-Seq lysis buffer (BioSpyder Technologies, proprietary kit, see [Middleton et al. 2022] for method details). Sequencing was performed using TempO-Seq (BioClavis) version 2 of the human whole transcriptome panel and analyzed as described previously in Middleton et al.

[2] = target: T1, Alpha-2A adrenergic receptor, ADRA2A (h) (Homo sapiens, UniProt P08913); settings: control yohimbine
T1 sequence (P08913 1-465): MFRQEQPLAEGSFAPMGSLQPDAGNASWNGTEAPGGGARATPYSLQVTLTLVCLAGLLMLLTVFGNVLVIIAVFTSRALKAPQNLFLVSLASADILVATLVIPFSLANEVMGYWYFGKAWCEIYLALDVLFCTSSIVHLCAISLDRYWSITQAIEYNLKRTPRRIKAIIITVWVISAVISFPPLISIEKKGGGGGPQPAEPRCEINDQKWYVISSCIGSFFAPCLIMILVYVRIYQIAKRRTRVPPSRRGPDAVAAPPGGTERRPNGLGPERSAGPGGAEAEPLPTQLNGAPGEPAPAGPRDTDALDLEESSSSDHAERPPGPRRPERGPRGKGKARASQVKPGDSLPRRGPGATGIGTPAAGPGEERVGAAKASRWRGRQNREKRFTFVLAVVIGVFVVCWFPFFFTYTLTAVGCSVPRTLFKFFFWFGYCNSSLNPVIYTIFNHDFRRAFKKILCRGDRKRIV

[3] = target: Sodium-dependent serotonin transporter, SLC6A4 (h) (Homo sapiens, UniProt P31645); format: binding; settings: control imipramine
MCF7 cells = assay: High-throughput transcriptomics (HTTr, TempO-Seq), MCF7, 24 h; format: cell-based, human; settings: MCF-7; for pod_httr_bifrost PoD: HTTr BIFROST PoD; for podl_path_minbmd PoD: HTTr minimum pathway BMD(L)
Experimental: as §1

[4] = target: 5-hydroxytryptamine receptor 2B, HTR2B (h) (Homo sapiens, UniProt P41595)
[5] = target: T2, Beta-2 adrenergic receptor, ADRB2 (h) (Homo sapiens, UniProt P07550); assay: IPP ADRB2 binding (antagonist radioligand); settings: control ICI 118551
T2 construct: purchased Eurofins Cerep (SafetyScreen44-based IPP panel)

[6] = target: Kappa-type opioid receptor OPRK1 (h) (Homo sapiens, UniProt P41145); settings: control U 50488
[7] = target: Delta-type opioid receptor, OPRD1 (h) (Homo sapiens, UniProt P41143); settings: ligand/control DPDPE
[8] = target: cAMP-specific 3',5'-cyclic phosphodiesterase 4D, PDE4D (h) (Homo sapiens, UniProt Q08499); assay: IPP PDE4D enzymatic activity; format: biochemical; settings: control Ro 20-1724
[9] = test system: 63 targets with known safety liabilities; assay: In vitro pharmacological profiling (IPP) panel, screening at 10 or 100 µM and dose response, minimum IC50/AC50; format: biochemical; settings: lowest AC50 across IPP panel (systemic targets); cell_type -; read-out: ipp_lowest_ac50_systemic PoD
[10] = target: Prostaglandin G/H synthase 1, PTGS1(h) (Homo sapiens, UniProt P23219); assay: IPP PTGS1 enzymatic activity; format: biochemical; settings: control Diclofenac
[11] = target: T3, Muscarinic acetylcholine receptor M1, CHRM1 (h) (Homo sapiens, UniProt P11229); format: binding; settings: control pirenzepine
T3 construct: purchased Eurofins Cerep (SafetyScreen44-based IPP panel)
T3 sequence (P11229 1-460): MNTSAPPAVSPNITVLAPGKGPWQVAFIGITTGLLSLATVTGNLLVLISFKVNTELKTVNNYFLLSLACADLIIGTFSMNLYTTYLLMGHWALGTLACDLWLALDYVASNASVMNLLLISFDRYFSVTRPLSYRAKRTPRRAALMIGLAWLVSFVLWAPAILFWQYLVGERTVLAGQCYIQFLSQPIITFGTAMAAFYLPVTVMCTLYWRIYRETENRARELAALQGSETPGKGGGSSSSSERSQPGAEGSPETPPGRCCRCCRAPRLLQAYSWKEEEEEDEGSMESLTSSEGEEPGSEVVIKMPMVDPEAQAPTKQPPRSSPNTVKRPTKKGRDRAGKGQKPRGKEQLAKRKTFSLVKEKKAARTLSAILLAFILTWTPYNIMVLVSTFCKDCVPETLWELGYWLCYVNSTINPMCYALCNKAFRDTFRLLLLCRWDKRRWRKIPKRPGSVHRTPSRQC

[12] = target: Neuronal acetylcholine receptor subunit alpha-4, CHRNA4 (h) (Homo sapiens, UniProt P17787+P43681); settings: control nicotine
[13] = target: Dopamine receptor D2, DRD2 (h) (Homo sapiens, UniProt P14416); settings: control 7-OH-DPAT
[14] = target: 5-hydroxytryptamine receptor 1B, HTR1B (h) (Homo sapiens, UniProt P28222); format: binding; settings: IPP screening at 10 uM; control serotonin
[15] = target: Potassium voltage-gated channel subfamily H member 2 hERG, KCNH2 (h) (Homo sapiens, UniProt Q12809)
[16] = IPP screening at 10 uM, control (±)DOI

Potassium voltage-gated channel subfamily H member 2 hERG, KCNH2 (h), sequence (Q12809 whole entry): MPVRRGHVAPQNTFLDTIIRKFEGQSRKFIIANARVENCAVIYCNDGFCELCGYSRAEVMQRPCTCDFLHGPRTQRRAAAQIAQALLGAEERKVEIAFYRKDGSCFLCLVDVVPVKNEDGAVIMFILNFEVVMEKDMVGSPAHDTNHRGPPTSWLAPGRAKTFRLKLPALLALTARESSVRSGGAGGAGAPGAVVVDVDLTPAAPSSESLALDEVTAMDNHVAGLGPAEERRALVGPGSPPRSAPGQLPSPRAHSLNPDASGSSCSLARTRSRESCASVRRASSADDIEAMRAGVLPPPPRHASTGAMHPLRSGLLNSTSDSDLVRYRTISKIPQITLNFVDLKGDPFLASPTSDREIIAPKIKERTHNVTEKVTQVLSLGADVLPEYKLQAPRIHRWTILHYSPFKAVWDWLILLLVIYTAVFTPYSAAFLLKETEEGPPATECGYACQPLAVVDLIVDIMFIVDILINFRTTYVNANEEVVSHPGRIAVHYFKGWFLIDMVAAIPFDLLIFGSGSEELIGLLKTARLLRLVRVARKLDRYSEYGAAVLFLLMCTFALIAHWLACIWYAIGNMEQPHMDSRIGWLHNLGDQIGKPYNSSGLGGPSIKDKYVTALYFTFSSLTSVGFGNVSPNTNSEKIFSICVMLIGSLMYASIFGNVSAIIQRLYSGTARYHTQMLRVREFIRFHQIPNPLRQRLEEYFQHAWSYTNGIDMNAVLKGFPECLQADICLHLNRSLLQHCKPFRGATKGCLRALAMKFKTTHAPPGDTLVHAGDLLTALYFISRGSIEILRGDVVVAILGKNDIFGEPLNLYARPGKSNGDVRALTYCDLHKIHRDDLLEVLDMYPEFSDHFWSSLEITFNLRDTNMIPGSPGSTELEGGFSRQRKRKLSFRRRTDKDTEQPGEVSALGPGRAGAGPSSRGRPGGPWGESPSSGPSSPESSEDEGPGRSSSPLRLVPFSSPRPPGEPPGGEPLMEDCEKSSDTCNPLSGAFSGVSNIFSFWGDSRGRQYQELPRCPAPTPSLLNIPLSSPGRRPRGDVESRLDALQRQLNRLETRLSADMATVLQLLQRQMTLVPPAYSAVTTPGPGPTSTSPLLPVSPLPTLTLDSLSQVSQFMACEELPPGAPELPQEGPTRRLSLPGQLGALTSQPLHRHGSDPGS
Sodium-dependent serotonin transporter, SLC6A4 (h), sequence (P31645 whole entry): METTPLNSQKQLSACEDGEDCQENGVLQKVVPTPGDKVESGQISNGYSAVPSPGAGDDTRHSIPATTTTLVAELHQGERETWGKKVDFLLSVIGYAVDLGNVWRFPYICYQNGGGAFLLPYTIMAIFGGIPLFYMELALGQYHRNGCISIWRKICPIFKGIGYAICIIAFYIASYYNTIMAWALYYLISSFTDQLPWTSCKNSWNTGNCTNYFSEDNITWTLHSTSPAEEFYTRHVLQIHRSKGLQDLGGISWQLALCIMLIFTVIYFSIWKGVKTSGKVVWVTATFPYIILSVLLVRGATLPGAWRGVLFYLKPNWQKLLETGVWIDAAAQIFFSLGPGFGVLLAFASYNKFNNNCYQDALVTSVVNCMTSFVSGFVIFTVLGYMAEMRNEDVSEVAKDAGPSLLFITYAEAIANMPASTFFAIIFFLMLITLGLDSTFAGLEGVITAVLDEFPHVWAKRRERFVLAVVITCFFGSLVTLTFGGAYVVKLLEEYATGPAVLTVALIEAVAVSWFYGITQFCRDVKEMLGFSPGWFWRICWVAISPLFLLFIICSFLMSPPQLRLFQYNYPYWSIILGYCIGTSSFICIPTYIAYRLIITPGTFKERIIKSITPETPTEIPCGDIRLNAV
Neuronal acetylcholine receptor subunit alpha-4, CHRNA4 (h), sequence (P43681 29-627 limits assumed): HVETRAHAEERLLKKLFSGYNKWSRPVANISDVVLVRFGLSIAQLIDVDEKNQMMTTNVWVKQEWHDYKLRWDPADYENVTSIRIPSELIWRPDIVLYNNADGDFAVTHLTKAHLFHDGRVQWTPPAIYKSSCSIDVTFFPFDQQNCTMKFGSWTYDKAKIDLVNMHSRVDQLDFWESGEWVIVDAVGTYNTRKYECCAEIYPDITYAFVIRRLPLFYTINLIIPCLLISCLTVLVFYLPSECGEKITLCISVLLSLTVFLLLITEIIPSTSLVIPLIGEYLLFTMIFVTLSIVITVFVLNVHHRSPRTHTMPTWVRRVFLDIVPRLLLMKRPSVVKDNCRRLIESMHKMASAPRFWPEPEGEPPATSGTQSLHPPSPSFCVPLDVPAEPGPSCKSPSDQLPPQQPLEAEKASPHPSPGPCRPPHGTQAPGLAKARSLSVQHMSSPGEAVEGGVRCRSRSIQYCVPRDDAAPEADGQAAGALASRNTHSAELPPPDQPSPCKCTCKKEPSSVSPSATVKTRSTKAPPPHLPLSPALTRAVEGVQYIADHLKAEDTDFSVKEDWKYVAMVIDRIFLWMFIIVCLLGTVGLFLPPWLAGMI
Neuronal acetylcholine receptor subunit alpha-4, CHRNA4 (h), sequence (P17787 26-502): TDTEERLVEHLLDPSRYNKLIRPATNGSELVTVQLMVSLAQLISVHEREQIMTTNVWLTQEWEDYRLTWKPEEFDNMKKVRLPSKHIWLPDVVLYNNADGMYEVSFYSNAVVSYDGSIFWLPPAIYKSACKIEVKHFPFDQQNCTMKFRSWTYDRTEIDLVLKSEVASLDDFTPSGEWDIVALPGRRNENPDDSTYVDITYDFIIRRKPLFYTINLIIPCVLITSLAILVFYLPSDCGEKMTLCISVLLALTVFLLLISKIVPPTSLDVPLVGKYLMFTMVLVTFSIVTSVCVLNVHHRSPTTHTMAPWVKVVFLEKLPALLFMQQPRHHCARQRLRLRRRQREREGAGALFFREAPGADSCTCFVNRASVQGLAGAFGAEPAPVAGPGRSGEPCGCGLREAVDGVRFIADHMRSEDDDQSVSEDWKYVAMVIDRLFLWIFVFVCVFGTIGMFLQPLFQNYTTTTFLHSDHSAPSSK
cAMP-specific 3',5'-cyclic phosphodiesterase 4D, PDE4D (h), sequence (Q08499 whole entry): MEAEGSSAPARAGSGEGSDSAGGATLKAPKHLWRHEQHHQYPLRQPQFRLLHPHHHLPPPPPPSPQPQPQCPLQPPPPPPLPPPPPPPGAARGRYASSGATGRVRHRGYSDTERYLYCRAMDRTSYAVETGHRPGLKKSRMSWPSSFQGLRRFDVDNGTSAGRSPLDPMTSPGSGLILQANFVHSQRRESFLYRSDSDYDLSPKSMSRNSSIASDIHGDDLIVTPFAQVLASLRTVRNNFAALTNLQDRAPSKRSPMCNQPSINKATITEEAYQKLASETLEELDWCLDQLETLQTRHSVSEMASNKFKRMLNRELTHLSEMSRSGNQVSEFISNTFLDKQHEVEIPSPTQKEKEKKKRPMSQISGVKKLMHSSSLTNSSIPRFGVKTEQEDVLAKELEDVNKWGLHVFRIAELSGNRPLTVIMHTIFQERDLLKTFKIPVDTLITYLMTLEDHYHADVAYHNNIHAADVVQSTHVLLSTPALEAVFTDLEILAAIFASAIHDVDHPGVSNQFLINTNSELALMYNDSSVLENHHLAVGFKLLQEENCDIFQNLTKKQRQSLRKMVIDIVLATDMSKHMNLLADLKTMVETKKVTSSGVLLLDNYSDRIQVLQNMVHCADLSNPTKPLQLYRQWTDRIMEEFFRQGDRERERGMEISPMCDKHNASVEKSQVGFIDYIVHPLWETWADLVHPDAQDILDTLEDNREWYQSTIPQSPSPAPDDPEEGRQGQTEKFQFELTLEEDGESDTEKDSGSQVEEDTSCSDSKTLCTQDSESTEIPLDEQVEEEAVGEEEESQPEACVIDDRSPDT
Dopamine receptor D2, DRD2 (h), sequence (P14416 whole entry): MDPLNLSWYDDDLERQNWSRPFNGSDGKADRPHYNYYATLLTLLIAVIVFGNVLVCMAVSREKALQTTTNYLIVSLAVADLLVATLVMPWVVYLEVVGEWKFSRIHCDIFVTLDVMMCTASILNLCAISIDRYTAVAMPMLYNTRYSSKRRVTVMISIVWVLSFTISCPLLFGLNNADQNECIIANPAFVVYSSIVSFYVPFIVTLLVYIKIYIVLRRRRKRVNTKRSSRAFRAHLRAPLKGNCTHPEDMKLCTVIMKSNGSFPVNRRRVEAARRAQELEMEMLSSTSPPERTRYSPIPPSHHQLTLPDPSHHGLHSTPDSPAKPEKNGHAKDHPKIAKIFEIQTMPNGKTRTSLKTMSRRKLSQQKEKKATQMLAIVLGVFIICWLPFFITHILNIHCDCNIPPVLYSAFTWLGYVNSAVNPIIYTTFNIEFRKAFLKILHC
Prostaglandin G/H synthase 1, PTGS1(h), sequence (P23219 24-599): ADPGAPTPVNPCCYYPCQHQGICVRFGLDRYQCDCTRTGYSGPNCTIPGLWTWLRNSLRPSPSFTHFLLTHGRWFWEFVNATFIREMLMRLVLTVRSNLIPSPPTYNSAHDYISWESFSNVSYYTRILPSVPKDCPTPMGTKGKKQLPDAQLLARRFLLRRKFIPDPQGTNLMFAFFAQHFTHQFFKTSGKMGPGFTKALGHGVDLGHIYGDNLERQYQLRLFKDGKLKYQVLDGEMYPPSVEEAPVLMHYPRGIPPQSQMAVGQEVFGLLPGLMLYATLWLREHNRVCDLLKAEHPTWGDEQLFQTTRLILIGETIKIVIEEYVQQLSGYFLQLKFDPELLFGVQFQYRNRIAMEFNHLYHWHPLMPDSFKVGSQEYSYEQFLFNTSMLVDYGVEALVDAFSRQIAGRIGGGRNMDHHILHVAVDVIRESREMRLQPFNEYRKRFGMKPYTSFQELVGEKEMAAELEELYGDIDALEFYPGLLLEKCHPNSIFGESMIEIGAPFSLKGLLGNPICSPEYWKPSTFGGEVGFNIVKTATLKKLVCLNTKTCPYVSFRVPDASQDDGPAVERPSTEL

Row | Compound | Specific binding ([1]; IPP screening at 10 uM) [%] | pod_httr_bifrost PoD (HepG2 cells) [µM] | podl_path_minbmd PoD (HepG2 cells) [µM] | Specific binding ([2]; IPP screening at 10 uM) [%] | Specific binding ([3]; IPP screening at 10 uM) [%] | pod_httr_bifrost PoD (MCF7 cells) [µM] | podl_path_minbmd PoD (MCF7 cells) [µM] | Specific binding [4, 16] [%] | Specific binding ([5]; IPP screening at 10 uM) [%] | Specific binding ([6]; IPP screening at 10 uM) [%] | IPP screening %, Specific binding ([7]; 10 uM) [%] | Enzymatic activity ([8]; IPP screening at 10 uM) [%] | AC50 [9] [nM] | Enzymatic activity ([10]; IPP screening at 10 uM) [%] | Specific binding ([11]; IPP screening at 10 uM) [%] | Specific binding ([12]; IPP screening at 10 uM) [%] | Specific binding ([13]; IPP screening at 10 uM) [%] | Specific binding [14] [%] | further results
1 | CCOP(=S)(OCC)Oc1nc(Cl)c(Cl)cc1Cl [Chlorpyrifos, O,O-Diethyl O-(3,5,6-trichloropyridin-2-yl) phosphorothioate] | 1.9 | 0.000303 | 2.42 | -3.7 | -9.1 | 0.08218 | 3.743 | 82.5 | -2.4 | 27.7 | 2.5 | 51.8 | 1850 | 2.7 | -5.6 | -6.9 | 12.6 | -20.1 | 
2 | CC(C)(C)c1ccc(CCOc2ncnc3ccccc23)cc1 [Fenazaquin, 4-[2-(4-tert-Butylphenyl)ethoxy]quinazoline] | 4.5 | 0.0002567 | 0.002178 | 5.2 | 4.6 | 0.001313 | 0.3873 | 77.1 | -1.2 | 56.7 | 46.9 | 14.7 | 2860 | -4.7 | 12.0 | -6.4 | 16.5 | -2.2 | IPP screening %, Specific binding ([15]; 10 uM, [3H] Dofetilide, control Terfenadine): 34.9%
3 | CC1(C)O[C@@H]2[C@@H](CO[C@@]3(COS(N)(=O)=O)OC(C)(C)O[C@@H]23)O1 [Topiramate, [(3aS,5aR,8aR,8bS)-2,2,7,7-Tetramethyltetrahydro-2H,3aH,7H-bis[1,3]dioxolo[4,5-b:4',5'-d]pyran-3a-yl]methyl sulfamate (non-preferred name)] |  | 3696.73 | 6631.79 |  |  | 22.6252 | 512.687 |  |  |  |  |  | 160 |  |  |  |  |  | Specific binding ([1]; IPP screening at 100 uM): -2.4%; Specific binding ([2]; IPP screening at 100 uM): -5.6%; Specific binding ([3]; IPP screening at 100 uM): 3.5%; Specific binding ([4]; IPP screening at 100 uM; control ±)DOI): -0.4%; Specific binding ([5]; IPP screening at 100 uM): 3.5%; Specific binding ([6]; IPP screening at 100 uM): 3.7%; IPP screening %, Specific binding ([7]; 100 uM): 2.3%; IPP screening %, Specific binding ([15]; human): -13.1%; Enzymatic activity ([8]; IPP screening at 100 uM): 27.9%; Enzymatic activity ([10]; IPP screening at 100 uM): -1.5%; Specific binding ([11]; IPP screening at 100 uM): 12.2%; Specific binding ([12]; IPP screening at 100 uM): 3.3%; Specific binding ([13]; IPP screening at 100 uM): 13.3%
4 | (4S,4aR,5S,5aR,6S,12aS)-4-(Dimethylamino)-3,5,6,10,12,12a-hexahydroxy-6-methyl-1,11-dioxo-1,4,4a,5,5a,6,11,12a-octahydrotetracene-2-carboxamide--hydrogen chloride (1/1) [Oxytetracycline hydrochloride] | 1.4 |  |  | -1.4 |  |  |  | 5.9 | 0.6 | 7.3 | -5.6 | 9.6 |  | -5.1 |  | -2.5 | 22.7 | -8.9 | IPP screening %, Specific binding [15]: -10.2%
5 | mixture of 2- and 3-tert-butyl-4-methoxyphenol [Butylated Hydroxyanisole] | 3.5 |  |  | 1.5 | 2.8 |  |  | 80.6 | 0.4 | 13.5 | -2.3 | 12.2 |  | 46.1 | 8.4 | -5.0 | -16.2 | 0.6 | 
